# How the values were obtained:
# iNOS [1] = assay: mRNA expression of iNOS in RAW264.7 cell line induced by LPS (real-time PCR); type: cell-based, mouse; details: for iNOS mRNA expression, Fold (value compared with a negative group) / iNOS mRNA expression, Inhibition ratio (IR) compared with LPS treatment group: LPS 1 μg/ml, 12 hours
# Procedure: In order to determine the inhibitory effect on the mRNA expression of pro-inflammatory medicated enzyme such as iNOS or COX-2, and pro-inflammatory medicated cytokines such as IL-1beta, IL-6, TNF-alpha in RAW264.7 cell line induced by LPS, following test using by real-time PCR (real-time polymerase chain reaction, quantitative real time polymerase chain reaction, qPCR) was performed according to the method disclosed in the literature (Livak, K. J., Schimittgen T. D., 2001, Analysis of relative gene expression data using real-time quantitiative PCR and the 2 (-Delta Delta C(T) method, Methods 25, p 402-408):
# (§1) RAW264.7 cell was inoculated into 6-well-plates in the concentration of 1×10^6 cell/well to incubate for 12 hours. Various concentration of KS-513 compound (2.5, 5, 10 and 20 μM) was pre-treated therewith and 1 μg/mL of LPS (L6529, Sigma) was added thereto to incubate for 12 hours.
# To extract total RNA, RNA was extracted using by Triazol B (invitrogen) and cDNA was synthesized using by Omniscript RT kit (205113, Qiagen, Gmbh, Hilden, Germany) after the quantification. The synthesized cDNA was mixed with its template and the primers shown in Table 3 (SEQ.I.D. 1-14), performed to denaturation at 94° C. for 5 mins using by PCR mix (PCR master Mix, Bioneer, Korea), and reacted as follows: 1 cycle for pre-denaturation; at 95° C. for 30 sec, 60° C. for 45 sec, 72° C. for 45 sec, 30 cycles for denaturation; 10 mins at 72° C., 1cycle for final extension. (FIG. 2)
# [2] = Acute toxicity test of oral administration in rat; details: Sprague-Dawley, in vivo
# Procedure: The acute toxicity test was performed by administrating inventive compound to 6-weeks aged SPF Sprague-Dawley rats.
# After administrating the extract or compounds, all the clinical changes i.e., mortality, clinical signs, body weight changes was observed and blood test such as haematological test and hematological biochemistry test was performed. The abnormal changes of abdominal organ and thoracic organ were observed after autopsy.
# IL-6 = IL-6 production in LPS-treated RAW264.7 cell (ELISA); type: cell-based, mouse; details: for IL-6 production (relative % comparing with LPS treatment group) / IL-6 production, Inhibitory ratio (%): LPS 1 μg/mL, 24 hours
# Procedure: RAW264.7 cell was inoculated into 96 well plates in the concentration of 1×10^5 cell/well to incubate for 18 hours. Various concentration of KS-513 compound (2.5, 5, 10 and 20 μM) was pre-treated therewith and 1 μg/mL of LPS (L6529, Sigma) was added thereto to incubate for 24 hours. The level of inflammatory cytokines such as IL-1beta, IL-6, TNF-alpha etc in the cell medium was determined by ELISA kit (IL-1beta:559603, IL-6:555240, TNF-alpha:5558534, BD) and the result was shown in FIG. 5 and Table 7-9.
# iNOS [3] = assay: iNOS protein expression in RAW264.7 cell induced by LPS (Western blot); type: cell-based, mouse; details: 2.5, 5, 10 and 20 μM, LPS 1 μg/mL, 12 hours, FIG. 3A
# Procedure: as §1, with “The expressed level of iNOS in RAW264.7 cell induced by LPS (1 μg/ml) was determined by using Western blot analysis. RAW264.7” for “RAW264.7”, “[…]” for “6-well-plates”
# To extract protein, after washing the cell with ice-cold PBS three times, lysis buffer (50 mM Tris HCl (pH 8.0), 5 mM EDTA, 150 mM NaCl, 1% NP-40, 0.1% SDS, 1 mM PMSF, and protease inhibitor cocktail tablet (Roche, Germany, 11697498001) was added to the cell, reacted at 4° C. for 30 mins and centrifuged for 10 mins at the speed of 12,000 rpm to collect the supernatant.
# The equivalent amount of the protein was isolated by SDS-PAGE and the protein was transferred to nitrocellulose membrane (BR162-0145, Bio-Rad). […] The product was reacted with ECL system and the amount of protein was determined by imaging analysis apparatus (LAS-4000, Fujifilm).
# The quantitative determination of protein was performed by determining the absorbance using assay kit (Bradford protein assay kit, Thermo) at 595 nm and the result was shown in FIG. 3A.
# RAW264.7 cell = assay: Cytotoxicity test (CCK-8) in RAW264.7 cell; type: cell-based, mouse; details: up to 80 μM
# Procedure: (§2) RAW264.7 cell (TIB-71, ATCC), a mouse macrophage cell, was suspended in 5% FBS (Fetal Bovine Serum)-supplemented DMEM (Dulbecco's Modified Eagle Medium, Gibco) medium in a concentration of 1×10^5 cells/ml, and 100 μL of the suspension was inoculated into 96 well plates to adhere cell to the plate for 4 hours. Various concentrations of test sample (KS 513 compound) were treated therewith and cultured for 24 hours. 10 μL of CCK-8 solution was mixed therewith according to the manufacture's manual kit (Dojindo Co. Ltd), reacted from 30 mins to 4 hours, and the absorbance of the solution was determined at […]. The cell viability was calculated according to following Math formulae 1 based on negative control group treated with 0.2% DMSO and the result was shown in Table 2.
# (§3) Cell viability (%)=OD 570 nm (test group)/OD 570 nm (negative control group)×100 Math formulae 1
# [4] = Cytotoxicity test (CCK-8) in RAW264.7 cell; type: cell-based, mouse; details: mouse, RAW264.7 macrophage cells
# Procedure: as §2, §3
smiles,measurement,setting,value
"CO[C@@H]1C[C@H]2[C@H](OC(=O)c3ccc(O)cc3)[C@@H]3O[C@]3(CO)[C@H]2[C@H](O[C@@H]2O[C@H](CO)[C@@H](O)C(O)[C@H]2O)O1 (stereo partly drawn) [KS-513, (1aS, 1bS,2S,4S,5aR,6S,6aS)-1a-(hydroxymethyl)-4-methoxy-2-(((2S,3R,5S,6R)-3,4,5-trihydroxy-6-(hydroxymethyl)tetrahydro-2H-pyran-2-yl)oxy)octahydrooxireno[2′,3′:4,5]cyclopenta[1,2-c]pyran-6-yl 4-hydroxybenzoate]","iNOS mRNA expression, Fold (value compared with a negative group)",iNOS [1]; 2.5 μM,7.25 ± 2.51 Fold
same,"iNOS mRNA expression, Inhibition ratio (IR) compared with LPS treatment group",iNOS [1]; 2.5 μM,18.41%
same,"iNOS mRNA expression, Fold (value compared with a negative group)",iNOS [1]; 5 μM,5.94 ± 2.91 Fold
same,"iNOS mRNA expression, Inhibition ratio (IR) compared with LPS treatment group",iNOS [1]; 5 μM,33.09%
same,"iNOS mRNA expression, Fold (value compared with a negative group)",iNOS [1]; 10 μM,2.48 ± 0.19 Fold
same,"iNOS mRNA expression, Inhibition ratio (IR) compared with LPS treatment group",iNOS [1]; 10 μM,72.12%
same,"iNOS mRNA expression, Fold (value compared with a negative group)",iNOS [1]; 20 μM,1.32 ± 0.47 Fold
same,"iNOS mRNA expression, Inhibition ratio (IR) compared with LPS treatment group",iNOS [1]; 20 μM,85.19%
same,expressed level of mRNA of iNOS,"iNOS [1]; various concentration, compared with control group treated with LPS (100%)",significantly decreased in a dose dependent manner
same,LD50 at 14 days,[2],> 5000 mg/kg
same,IL-6 production (relative % comparing with LPS treatment group),IL-6; 2.5 μM,75.21 ± 2.20%
same,"IL-6 production, Inhibitory ratio (%)",IL-6; 2.5 μM,24.79%
same,IL-6 production (relative % comparing with LPS treatment group),IL-6; 5 μM,71.34 ± 5.75%
same,"IL-6 production, Inhibitory ratio (%)",IL-6; 5 μM,28.66%
same,IL-6 production (relative % comparing with LPS treatment group),IL-6; 10 μM,51.13 ± 2.31%
same,"IL-6 production, Inhibitory ratio (%)",IL-6; 10 μM,48.87%
same,IL-6 production (relative % comparing with LPS treatment group),IL-6; 20 μM,39.25 ± 2.85%
same,"IL-6 production, Inhibitory ratio (%)",IL-6; 20 μM,60.75%
same,level of produced IL-6,"IL-6; vs LPS treatment group (1 μg/ml), FIG. 5",reduced in a dose dependent manner
same,expressed level of iNOS protein,iNOS [3],reduced in a dose dependent manner
same,cytotoxicity in RAW264.7 cell,RAW264.7 cell,did not show cytotoxicity
same,"viability at 24 h, 2.5 µM","[4]; 2.5 μM, 24 hours, vs negative control 0.2% DMSO, read-out: RAW264.7 cell viability (%, mean ± variation)",99.6 ± 3.66%
same,"viability at 24 h, 5 µM","[4]; 5 μM, 24 hours, vs negative control 0.2% DMSO, read-out: RAW264.7 cell viability (%, mean ± variation)",99.3 ± 5.68%
same,"viability at 24 h, 10 µM","[4]; 10 μM, 24 hours, vs negative control 0.2% DMSO, read-out: RAW264.7 cell viability (%, mean ± variation)",98.2 ± 3.28%
same,"viability at 24 h, 20 µM","[4]; 20 μM, 24 hours, vs negative control 0.2% DMSO, read-out: RAW264.7 cell viability (%, mean ± variation)",94.7 ± 3.03%
same,"viability at 24 h, 40 µM","[4]; 40 μM, 24 hours, vs negative control 0.2% DMSO, read-out: RAW264.7 cell viability (%, mean ± variation)",97.2 ± 7%
same,"viability at 24 h, 80 µM","[4]; 80 μM, 24 hours, vs negative control 0.2% DMSO, read-out: RAW264.7 cell viability (%, mean ± variation)",95.1 ± 2.73%
same,viability at 24 h,[4]; at less than 80 μM,> 95%

# — patent US20180105548A1, “A novel compound (KS-513) isolated from Pseudolysimachion rotundum var. subintegrum, the composition comprising the same preventing or treating allergic disease, inflammatory disease, asthma or chronic obstructive pulmonary disease and the use thereof” (priority 2015, published 2018)
